The NIST ThermoML archive (doi:10.1016/j.fluid.2019.05.006)
Numbers after ± are expanded uncertainties.

Conditions: 101.33 kPa, Liquid, Falling or rolling sphere viscometry

C[N+](C)(C)CCO.NCC(=O)[O-] [2-hydroxy-N,N,N-trimethylethanaminium glycinate]
viscosity (308.15 K): 84.3 ± 1.6 mPa·s
viscosity (318.15 K): 29.4 ± 0.7 mPa·s
viscosity (328.15 K): 14.3 ± 0.6 mPa·s
viscosity (338.15 K): 7.2 ± 0.3 mPa·s
